Where a name gives a salt, the structure may show the parent alone. Read-outs that look alike come from different tables or passages of the source.
Key:
human 5-HT1A receptors = target: T1, human 5-HT1A receptors (Homo sapiens, UniProt P08908); assay: [3H] 8-OH-DPAT displacement from 5-HT1A receptor; type: binding
T1 construct: expressed in transfected cells; host or cells: CHO cells
T1 sequence (P08908 1-422): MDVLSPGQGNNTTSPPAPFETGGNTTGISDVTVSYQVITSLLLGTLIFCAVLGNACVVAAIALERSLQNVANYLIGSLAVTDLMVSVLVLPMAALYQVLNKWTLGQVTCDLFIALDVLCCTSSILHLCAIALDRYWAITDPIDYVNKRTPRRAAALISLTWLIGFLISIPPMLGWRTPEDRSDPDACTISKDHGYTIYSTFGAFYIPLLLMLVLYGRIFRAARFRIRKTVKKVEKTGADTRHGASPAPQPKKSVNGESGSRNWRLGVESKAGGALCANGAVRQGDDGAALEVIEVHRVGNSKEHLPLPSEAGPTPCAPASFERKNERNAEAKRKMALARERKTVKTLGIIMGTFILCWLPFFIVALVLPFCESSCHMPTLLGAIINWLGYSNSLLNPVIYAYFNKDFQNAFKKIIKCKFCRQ
Description: High affinity for the serotonin 5-HT1A receptor was established by testing the claimed compound's ability to displace [^3H] 8-OH-DPAT (dipropylaminotetralin) from the 5-HT1A serotonin receptor following a modification of the procedure of Hall et al., J. Neurochem. 44, 1685 (1985) which utilizes CHO cells stably transfected with human 5-HT1A receptors.

[1] = target: T2, cloned human 5-HT1A receptors (Homo sapiens, UniProt P08908); assay: 35S-GTPγS binding assay, antagonist activity versus 8-OH-DPAT; type: biochemical; conditions: for 5-HT1A Function Imax (maximum inhibitory effect): value in parentheses after IC50
T2 construct: expressed in transfected cells
T2 sequence (P08908 1-422): T1 sequence (P08908 1-422)
Method: Antagonist activity at 5-HT1A receptors was established by using a ^35S-GTPγS binding assay similar to that used by Lazareno and Birdsall (Br. J. Pharmacol. 109: 1120, 1993), in which the test compound's ability to affect the binding of ^35S-GTPγS to membranes containing cloned human 5-HT1A receptors was determined. Agonists produce an increase in binding whereas antagonists produce no increase but rather reverse the effects of the standard agonist 8-OH-DPAT. The test compound's maximum inhibitory effect is represented as the Imax, while its potency is defined by the IC50.

[2] = CHO cells stably transfected with human 5-HT1A receptors, [3H] 8-OH-DPAT, read-out: 5-HT1A Receptor Affinity KI
[3] = reversal of the effects of the standard agonist 8-OH-DPAT on 35S-GTPγS binding, read-out: 5-HT1A Function IC50

SMILES	melting point	Ki (human 5-HT1A receptors; [2])	further results
Cc1ccc2c3c(ccc2n1)OCC(CN1CCC2(CC1)C(=O)NCN2c1ccccc1)O3 (stereo not shown) (as salt: fumarate) (hydrate or solvate) [Example 2, 8-{[8-Methyl-2,3-dihydro[1,4]dioxino[2,3-f]quinolin-2-yl]methyl}-1-phenyl-1,3,8-triazaspiro[4.5]decan-4-one]	199 to 201 °C	–	–
Cc1ccc2c3c(ccc2n1)OC[C@H](CN1CCC(n2c(=O)[nH]c4ccccc42)CC1)O3 (as salt: fumarate) (hydrate or solvate) [Example 3, 1-(1-{[8-Methyl-2,3-dihydro[1,4]dixino[2,3-f]quinlin-2-yl]methyl}piperidin-4-yl)-1,3-dihydro-2H-benzimidazol-2-one]	194 to 196 °C	–	–
Cc1ccc2c3c(ccc2n1)OCC(CN1CCC(C(=O)c2ccc(F)cc2)CC1)O3 (stereo not shown) (as salt: fumarate) (hydrate or solvate) [Example 5, (4-Fluorophenyl)(1-{[8-methyl-2,3-dihydro[1,4]dioxino[2,3-f]quinolin-2-yl]methyl}-4-piperidinyl)methanone]	206 to 207 °C	–	–
Cc1ccc2c3c(ccc2n1)OCC(CN1CCC(O)(c2cccc(C(F)(F)F)c2)CC1)O3 (stereo not shown) (as salt: fumarate) (hydrate or solvate) [Example 6, 1-{[8-Methyl-2,3-dihydro[1,4]dioxino[2,3-f]quinolin-2-yl]methyl}-4-[3-(trifluoromethyl)phenyl]-4-piperidinol]	133 to 135 °C	–	–
Cc1ccc2c3c(ccc2n1)OCC(CN1CC=C(c2ccccc2)CC1)O3 (stereo not shown) (as salt: fumarate) (hydrate or solvate) [Example 8, 8-Methyl-2-{[4-phenyl-3,6-dihydro-1(2H)-pyridinyl]methyl}-2,3-dihydro[1,4]dioxino[2,3-f]quinoline]	185 to 188 °C	–	–
CCc1ccc2c3c(ccc2n1)OCC(CN1CCC2(CC1)C(=O)NCN2c1ccccc1)O3 (stereo not shown) (as salt: fumarate) (hydrate or solvate) [Example 9, 8-{[8-Ethyl-2,3-dihydro[1,4]dioxino[2,3-f]quinolin-2-yl]methyl}-1-phenyl-1,3,8-triazaspiro[4.5]decan-4-one]	207 to 209 °C	–	–
O=C1NCN(c2ccccc2)C12CCN(CC1COc3ccc4ncccc4c3O1)CC2 (stereo not shown) (as salt: fumarate) [Example 1, 8-[2,3-Dihydro[1,4]dioxino[2,3-f]quinolin-2-ylmethyl]-1-phenyl-1,3,8-triazaspiro[4.5]decan-4-one]	170 °C	–	–
Cc1ccc2c3c(ccc2n1)OCC(CN1CCCCC1)O3 (stereo not shown) (as salt: hydrochloride) (hydrate or solvate) [Example 4, 8-Methyl-2-(piperidin-1-ylmethyl)-2,3-dihydro[1,4]dioxino[2,3-f]quinoline]	278 to 280 °C	–	–
Cc1ccc2c3c(ccc2n1)OCC(CN1CCC(C#N)(c2ccccc2)CC1)O3 (stereo not shown) (as salt: salt) [Example 7, 1-{[8-Methyl-2,3-dihydro[1,4]dioxino[2,3-f]quinolin-2-yl]methyl}-4-phenyl-4-piperidinecarbonitrile]	185 to 187 °C	–	–
O=C1NCN(c2ccccc2)C12CCN(CC1COc3ccc4ncccc4c3O1)CC2 (stereo not shown) [Example 1, 8-[2,3-Dihydro[1,4]dioxino[2,3-f]quinolin-2-ylmethyl]-1-phenyl-1,3,8-triazaspiro[4.5]decan-4-one]	–	1.44 nM	IC50 [1, 3]: 55 nM; 5-HT1A Function Imax (maximum inhibitory effect) [1]: 100
Cc1ccc2c3c(ccc2n1)OCC(CN1CCC2(CC1)C(=O)NCN2c1ccccc1)O3 (stereo not shown) [Example 2, 8-{[8-Methyl-2,3-dihydro[1,4]dioxino[2,3-f]quinolin-2-yl]methyl}-1-phenyl-1,3,8-triazaspiro[4.5]decan-4-one]	–	1.79 nM	IC50 [1, 3]: 64 nM; 5-HT1A Function Imax (maximum inhibitory effect) [1]: 100
Cc1ccc2c3c(ccc2n1)OC[C@H](CN1CCC(n2c(=O)[nH]c4ccccc42)CC1)O3 [Example 3, 1-(1-{[8-Methyl-2,3-dihydro[1,4]dixino[2,3-f]quinlin-2-yl]methyl}piperidin-4-yl)-1,3-dihydro-2H-benzimidazol-2-one]	–	3.08 nM	IC50 [1, 3]: 66 nM; 5-HT1A Function Imax (maximum inhibitory effect) [1]: 85.0
Cc1ccc2c3c(ccc2n1)OCC(CN1CCCCC1)O3 (stereo not shown) [Example 4, 8-Methyl-2-(piperidin-1-ylmethyl)-2,3-dihydro[1,4]dioxino[2,3-f]quinoline]	–	51 nM	IC50 [1, 3]: 483 nM; 5-HT1A Function Imax (maximum inhibitory effect) [1]: 100
Cc1ccc2c3c(ccc2n1)OCC(CN1CCC(C(=O)c2ccc(F)cc2)CC1)O3 (stereo not shown) [Example 5, (4-Fluorophenyl)(1-{[8-methyl-2,3-dihydro[1,4]dioxino[2,3-f]quinolin-2-yl]methyl}-4-piperidinyl)methanone]	–	18.5 nM	–
Cc1ccc2c3c(ccc2n1)OCC(CN1CCC(O)(c2cccc(C(F)(F)F)c2)CC1)O3 (stereo not shown) [Example 6, 1-{[8-Methyl-2,3-dihydro[1,4]dioxino[2,3-f]quinolin-2-yl]methyl}-4-[3-(trifluoromethyl)phenyl]-4-piperidinol]	–	6.94 nM	–
Cc1ccc2c3c(ccc2n1)OCC(CN1CCC(C#N)(c2ccccc2)CC1)O3 (stereo not shown) [Example 7, 1-{[8-Methyl-2,3-dihydro[1,4]dioxino[2,3-f]quinolin-2-yl]methyl}-4-phenyl-4-piperidinecarbonitrile]	–	–	Ki (human 5-HT1A receptors): 76.1 nM; IC50 [1]: 445 nM; 5-HT1A Function Imax (maximum inhibitory effect) [1]: 50
Cc1ccc2c3c(ccc2n1)OCC(CN1CC=C(c2ccccc2)CC1)O3 (stereo not shown) [Example 8, 8-Methyl-2-{[4-phenyl-3,6-dihydro-1(2H)-pyridinyl]methyl}-2,3-dihydro[1,4]dioxino[2,3-f]quinoline]	–	7.91 nM	–
CCc1ccc2c3c(ccc2n1)OCC(CN1CCC2(CC1)C(=O)NCN2c1ccccc1)O3 (stereo not shown) [Example 9, 8-{[8-Ethyl-2,3-dihydro[1,4]dioxino[2,3-f]quinolin-2-yl]methyl}-1-phenyl-1,3,8-triazaspiro[4.5]decan-4-one]	–	2.79 nM	–
